Laboratory results: article PMC6270837, “Preparation and Biological Properties of Ring-Substituted Naphthalene-1-Carboxanilides” (Molecules, 2014)
Values joined by “and” are separate entries in the source; they are usually repeats but may differ in a detail not shown here. Equal values may be shown once. Read-outs that look alike come from different tables or passages of the source.

What was measured:
[1] = Lipophilicity determination by RP-HPLC (capacity factor, log k); format: physicochemical; settings: end-capped C18, isocratic MeOH 60%/H2O 40%
Experimental: Lipophilicity is a property that has a major effect on bioavailability, biotransformation as well as pharmacological activity, because drugs cross biological membranes through passive transport, which strongly depends on their lipophilicity. Lipophilicity of the studied compounds was determined by RP‑HPLC as capacity factor logarithm (log k). The procedure was performed under isocratic conditions with methanol as an organic modifier in the mobile phase using an end-capped non-polar C18 stationary RP column. The results of ring-substituted naphthalene-1-carboxanilides 1–8c are shown in Table 1 and illustrated in Figure 1. […] Lipophilicity was also calculated as log P using ACD/Percepta ver. 2012 (Advanced Chemistry Development, Inc., Toronto, ON, Canada).
A HPLC system Agilent 1200 equipped with DAD detector (Agilent, USA) was used. A chromatographic column Symmetry® C18 5 μm, 4.6 × 250 mm, Part No. WAT054275 (Waters Corp., Milford, MA, USA) was used. The HPLC separation process was monitored and evaluated by EZChrom Elite software ver. 3.3.2 (Agilent, USA). Isocratic elution by a mixture of MeOH p.a. (60%) and H2O-HPLC Mili-Q grade (40%) as a mobile phase was used. The total flow of the column was 1.0 mL/min, injection 20 μL, column temperature 40 °C, and sample temperature 10 °C. The detection wavelength 210 nm was chosen. The KI methanolic solution was used for the dead time (tD) determination. Retention times (tR) were measured in minutes. The capacity factors k were calculated according to formula k = (tR − tD)/tD, where tR is the retention time of the solute, whereas tD denotes the dead time obtained using an unretained analyte. Log k, calculated from the capacity factor k, is used as the lipophilicity index converted to log P scale.

[2] = Solubility in PET tested medium; format: physicochemical; settings: PET assay medium, phosphate buffer pH 7.2, DMSO up to 4%
Experimental: (§1) Chloroplasts were prepared from spinach (Spinacia oleracea L.) according to Masarovicova and Kralova. The inhibition of photosynthetic electron transport (PET) in isolated spinach chloroplasts was determined spectrophotometrically (Genesys 6, Thermo Scientific, USA), using an artificial electron acceptor 2,6-dichlorophenol-indophenol (DCIPP) according to Kralova et al., and the rate of photosynthetic electron transport was monitored as a photoreduction of DCPIP. The measurements were carried out in phosphate buffer (0.02 mol/L, pH 7.2) containing sucrose (0.4 mol/L), MgCl2 (0.005 mol/L) and NaCl (0.015 mol/L). The chlorophyll content was 30 mg/L in these experiments and the samples were irradiated (~100 W/m^2 with 10 cm distance) with a halogen lamp (250 W) using a 4 cm water filter to prevent warming of the samples (suspension temperature 22 °C). The studied compounds were dissolved in DMSO due to their limited water solubility. […] The inhibitory efficiency of the studied compounds was expressed by IC50 values, i.e., by molar concentration of the compounds causing 50% decrease in the oxygen evolution rate relative to the untreated control.

[3] = tested on: photosynthetic electron transport (PET) in isolated spinach chloroplasts; assay: Inhibition of photosynthetic electron transport (PET) in isolated spinach chloroplasts; format: biochemical, Spinacia oleracea L.; settings: DCPIP photoreduction
Experimental: The PET-inhibiting activity was expressed by IC50 value, i.e., compound concentration in mol/L causing 50% inhibition of PET.
as §1

[4] = tested on: Mycobacterium avium subsp. paratuberculosis CIT03; assay: In vitro antimycobacterial evaluation (MIC/IC90, alamarBlue); format: cell-based; settings: for MIC: Mycobacterium avium
Experimental: The MIC/IC90 value is routinely and widely used in bacterial assays and is a standard detection limit according to the Clinical and Laboratory Standards Institute.
A well-characterized clinical isolate of Mycobacterium avium subsp. paratuberculosis (CIT03) was grown in Middlebrook broth (MB), supplemented with Oleic-Albumin-Dextrose-Catalase supplement (OADC, Becton, Dickinson and Comp., Franklin Lakes, NJ, USA) and mycobactin J (2 µg/mL). Identification of this isolate was performed using biochemical and molecular protocols. At log phase growth, a culture sample (10 mL) was centrifuged at 15,000 rpm/20 min using a bench top centrifuge (Model CR 4-12, Jouan Inc., Winchester, VA, USA). Following removal of the supernatant, the pellet was washed in fresh Middlebrook 7H9GC broth and re-suspended in fresh supplemented MB (10 mL). The turbidity was adjusted to match McFarland standard No. 1 (3 × 10^8 cfu) with MB broth. A further 1:20 dilution of the culture was then performed in MB broth. The antimicrobial susceptibility of the mycobacterial species was investigated in a 96-well plate format. In these experiments, sterile deionized water (300 µL) was added to all outer-perimeter wells of the plates to minimize evaporation of the medium in the test wells during incubation. Each evaluated compound (100 µL) was incubated with the mycobacterial species (100 µL). Dilutions of each compound were prepared in duplicate. For all synthesized compounds, final concentrations ranged from 1,000 µg/mL to 8 µg/mL. All compounds were prepared in DMSO and subsequent dilutions were made in supplemented MB. The plates were sealed with parafilm and incubated at 37 °C for 11 days.
Following incubation, a 10% addition of alamarBlue (AbD Serotec, Kidlington, UK) was mixed into each well and readings at 570 nm and 600 nm were taken, initially for background subtraction and subsequently after 24 h re-incubation. […] For non-interfering compounds, a blue colour in the well was interpreted as an absence of growth and a pink colour was scored as growth. Furthermore percent reduction of alamarBlue was calculated to generate quantitative data on cell viability during exposure to antimycobacterial compounds over a period of 5 days. The formula used to determine percent reduction of alamarBlue has been standardized for colorimetric analysis by Abd Serotec.
The MIC value is routinely and widely used in bacterial assays and is a standard detection limit according to the Clinical and Laboratory Standards Institute.

[5] = 264 h, clinical isolate CIT03, 11 days at 37 °C, alamarBlue, MIC = 90% or greater reduction of growth, read-out: MAP MIC/IC90

Compound: O=C(Nc1ccccc1)c1cccc2ccccc12 [Compound 1, N-Phenylnaphthalene-1-carboxamide]
- log k [1]: 0.5620

Compound: COc1ccc(NC(=O)c2cccc3ccccc23)cc1 [Compound 2c, N-(4-Methoxyphenyl)naphthalene-1-carboxamide]
- log k [1]: 0.4953

Compound: Cc1ccccc1NC(=O)c1cccc2ccccc12 [Compound 3a, N-(2-Methylphenyl)naphthalene-1-carboxamide]
- log k [1]: 0.5309

Compound: O=C(Nc1ccccc1F)c1cccc2ccccc12 [Compound 4a, N-(2-Fluorophenyl)naphthalene-1-carboxamide]
- log k [1]: 0.5592
- solubility in tested medium (PET experiments) [2]: precipitation

Compound: O=C(Nc1ccc(F)cc1)c1cccc2ccccc12 [Compound 4c, N-(4-Fluorophenyl)naphthalene-1-carboxamide]
- log k [1]: 0.6315
- solubility in tested medium (PET experiments) [2]: precipitation

Compound: O=C(Nc1ccccc1Cl)c1cccc2ccccc12 [Compound 5a, N-(2-Chlorophenyl)naphthalene-1-carboxamide]
- log k [1]: 0.8322
- solubility in tested medium (PET experiments) [2]: precipitation

Compound: O=C(Nc1cccc(Cl)c1)c1cccc2ccccc12 [Compound 5b, N-(3-Chlorophenyl)naphthalene-1-carboxamide]
- log k [1]: 0.9357
- IC50 [3]: 107 µM

Compound: O=C(Nc1ccc(Cl)cc1)c1cccc2ccccc12 [Compound 5c, N-(4-Chlorophenyl)naphthalene-1-carboxamide]
- log k [1]: 0.9223
- IC50 [3]: 102 µM

Compound: O=C(Nc1ccccc1Br)c1cccc2ccccc12 [Compound 6a, N-(2-Bromophenyl)naphthalene-1-carboxamide]
- log k [1]: 0.8892
- solubility in tested medium (PET experiments) [2]: precipitation

Compound: O=C(Nc1cccc(Br)c1)c1cccc2ccccc12 [Compound 6b, N-(3-Bromophenyl)naphthalene-1-carboxamide]
- log k [1]: 1.0047
- IC50 [3]: 278 µM
- solubility in tested medium (PET experiments) [2]: limited solubility

Compound: O=C(Nc1ccc(Br)cc1)c1cccc2ccccc12 [Compound 6c, N-(4-Bromophenyl)naphthalene-1-carboxamide]
- log k [1]: 0.9985
- MIC [4, 5]: 184 µM
- IC50 [3]: 365 µM
- solubility in tested medium (PET experiments) [2]: limited solubility

Compound: O=C(Nc1ccccc1C(F)(F)F)c1cccc2ccccc12 [Compound 7a, N-[2-(Trifluoromethyl)phenyl]naphthalene-1-carboxamide]
- log k [1]: 0.7595
- solubility in tested medium (PET experiments) [2]: precipitation

Compound: O=C(Nc1cccc(C(F)(F)F)c1)c1cccc2ccccc12 [Compound 7b, N-[3-(Trifluoromethyl)phenyl]naphthalene-1-carboxamide]
- log k [1]: 1.0862
- IC50 [3]: 114 µM

Compound: O=C(Nc1ccc(C(F)(F)F)cc1)c1cccc2ccccc12 [Compound 7c, N-[4-(Trifluoromethyl)phenyl]naphthalene-1-carboxamide]
- log k [1]: 1.1480
- MIC [4, 5]: 793 µM
- IC50 [3]: 59 µM

Compound: O=C(Nc1ccccc1[N+](=O)[O-])c1cccc2ccccc12 [Compound 8a, N-(2-Nitrophenyl)naphthalene-1-carboxamide]
- log k [1]: 0.9090
- IC50 [3]: 476 µM
- solubility in tested medium (PET experiments) [2]: limited solubility

Compound: O=C(Nc1cccc([N+](=O)[O-])c1)c1cccc2ccccc12 [Compound 8b, N-(3-Nitrophenyl)naphthalene-1-carboxamide]
- log k [1]: 0.8155
- IC50 [3]: 492 µM
- solubility in tested medium (PET experiments) [2]: limited solubility

Compound: O=C(Nc1ccc([N+](=O)[O-])cc1)c1cccc2ccccc12 [Compound 8c, N-(4-Nitrophenyl)naphthalene-1-carboxamide]
- log k [1]: 0.7328
- IC50 [3]: 129 µM

Compound: CN(C)C(=O)Nc1ccc(Cl)c(Cl)c1 [DCMU, 3-(3,4-dichlorophenyl)-1,1-dimethylurea, reference compound]
- IC50 [3]: ~1.9 µM and 1.9 µM

Compound: NNC(=O)c1ccncc1 [INH, isoniazid, reference compound]
- MIC [4, 5]: 1820 µM

Compound: CO[C@H]1/C=C/O[C@@]2(C)Oc3c(C)c(O)c4c(O)c(c(/C=N/N5CCN(C)CC5)c(O)c4c3C2=O)NC(=O)/C(C)=C\C=C\[C@H](C)[C@H](O)[C@@H](C)[C@@H](O)[C@@H](C)[C@H](OC(C)=O)[C@@H]1C [RIF, rifampicin, reference compound]
- MIC ([4]; 264 h, read-out: MAP MIC/IC90): 109 µM
- MIC ([4]; clinical isolate CIT03, read-out: MIC): 90 µg/mL
- MAP MIC/IC90 ([4]; clinical isolate CIT03, 11 days at 37 °C, alamarBlue, MIC = 90% or greater reduction of growth): 109 µM
